Data on four compounds can be found in patent US20090169478A1, “In Vivo Imaging and Therapy with Magnetic Nanoparticle Conjugates” (priority 2005, published 2009).

Series [1] concerns MDA-MB-435S.luc tumor bearing mice. The series is described as follows: Treatment of tumor-xenografted mice (Example 29). It is filed as in vivo, mouse. Conditions: for tumor weights at necropsy: tail vein injections at 3, 4 and 5 weeks post-xenograft, 28 days after the start of treatment. The source says:
Mice were sacrificed and necropsied 6 weeks post-xenografts. […] Bodyweights, liver weights, and gonadal weights remained stable during all treatments. The breast cancer tumors and metastases were specifically targeted and destroyed by LHRH-conjugated SPIONs carrying a toxin (hecate). The same particles may be used for simultaneous treatment and imaging, e.g., for directly monitoring treatment response in cancer patients.

In series [2] the test system is MDA-MB-435S.luc breast cancer cells. Put plainly: Effect of spacer molecule on cellular iron uptake (Example 27). It is filed as cell-based, human. Conditions: iron incubation 1 mg/ml, 3 hours; for iron accumulation in the breast cancer cells in the presence of LHRH: free LHRH present. Here is the method: The effect of a spacer molecule on cellular uptake was tested in vitro on MDA-MB-435S.luc breast cancer cells, which express LHRH receptors. Iron incubation was conducted at 1 mg/ml for different conditions for 3 hours. Accumulation in the breast cancer cells was 82.3±25 pg/cell for SPIONs, 165±16 pg/cell for LHRH−SPIONs, and 223±16 pg/cell with LHRH-Glu-SPION. […] These observations support our hypothesis that iron uptake was driven by receptor-mediated endocytosis.

For series [3], the system named is Chinese Hamster Ovary cells; mouse Sertoli cells. The series is described as follows: In vitro uptake in cell lines that do not express the appropriate receptors. The conditions noted are these: listed as LHRH−SPIONs. It is filed as cell-based. Here is the method: (§1) LHRH−SPIONs and βCG/LH-SPIONs were tested on breast cancer cells MDA-MB-435S, on Chinese Hamster Ovary cells, on rat LH-receptor-transfected Chinese Hamster Ovary cells, and on mouse Sertoli cells. Experiments were conducted in the presence of LHRH, βCG, or neither. […] In addition, we observed that co-incubation with the free peptide ligands blocked the receptors that otherwise enabled the ligand-conjugated SPIONs to enter cells through receptor-mediated endocytosis. The uptake was then primarily via phagocytosis or pinocytosis at a low rate, similar to that for unconjugated SPIONs. The observed uptake was specific; the quantity of iron nanoparticles within the cells was substantially higher for receptor-mediated uptake.

Another series has as its system tumor-free mice. The conditions noted are these: mouse, in vivo, iv. On the procedure:
(§2) Targeting Human Breast Cancer Xenograft and their Metastases with LHRH−SPIONs in vivo. To evaluate the distribution of LHRH−SPIONs and unconjugated SPIONs in vivo, female nude mice with human breast MDA-MB-435S.luc xenograft as described above were injected intravenously with 250 mg/kg LHRH-SPIONs or with unconjugated SPIONs, 35 days after tumor inoculation. The mice were sacrificed 20 h after injection, and the organs and tumors were collected, weighed and analyzed for iron and luciferase. Portions of the organs and tumors were homogenized and their iron content determined spectrophotometrically after reaction with Prussian blue, while other portions were analyzed after fixation by transmission electron microscopy.
(§3) Statistical analyses were conducted on raw data by ANOVA. We obtained the ranks of the data, and then conducted a Kruskal-Wallis test. Differences were considered significant at the P<0.05 level. Rank data and variance stabilizing transformations were included.

Series [4] can be described thus: Surface charge of nanoparticles. It is filed as physicochemical. The source says:
The magnetic nanoparticle preferably comprises primarily Fe3O4, rather than the Fe2O3 that has been used for most prior magnetic nanoparticles. The Fe3O4 particle surface contains amine groups that initially prevent agglomeration, eliminating the need for a coating such as a dextran or other intermediate coatings such as have been used in most prior magnetic nanoparticles. […] The only “coating” that need be used is the targeting agent itself, one with specificity for the target cells (or a combination of targeting agent and toxin or drug). The targeting agent, and the optional toxin or drug are covalently linked to the nanoparticle via amide linkages formed by reaction with the amine groups on the particles. The targeting agent may, for example, be a hormone, ligand, or antibody, or a fragment thereof to assist in selectively directing the particles to the cells of interest and facilitating their intracellular up-take and accumulation. The optional toxin or drug may, for example, be a lytic peptide, other peptide toxin, or other toxin or drug. Our studies have shown that reducing the amount of ligand/coating on the nanoparticles increases macrophage recognition and incorporation. By optionally distancing the ligand from the nanoparticle surface through a spacer molecule, ligand specificity may be retained while increasing cellular uptake. […]

The subject of series [5] is mice bearing the MDA-MB-435S.luc tumors. The conditions noted are these: after sequential injections. The source says:
See FIGS. 3(a) through (d), showing photographs of Prussian Blue-stained sections from lungs of mice bearing the MDA-MB-435S.luc tumors. FIG. 3(a) depicts a saline-injected control. FIG. 3(b) depicts injection with unconjugated SPIONs. FIGS. 3 (c) and (d) depict injection with conjugated LHRH−SPIONs.

Series [6] concerns tumor-xenograft-bearing mice. The conditions noted are these: 2, 10, 30 and 60 days after injection. On the procedure:
Pharmacokinetics of iron nanoparticles. To determine the pharmacokinetic profile of SPIONs and their conjugates, 4 groups of tumor-xenograft-bearing mice (n=10) are injected with the various concentrations of conjugated SPIONs as determined above. A fifth group serves as saline control. The mice are housed for 2, 10, 30, and 60 days after injection, and are then sacrificed to determine iron content in peripheral tissues. This experiment uses 50 female nude mice, and will establish the excretion profile of LHRH−SPIONs over a period of 60 days.

The test system of series [7] is MDA-MB-435S.luc xenograft-bearing mouse. The conditions noted are these: 250 mg/kg tail vein, 20 hours, 6 mice per group. On the procedure:
The mice were euthanized 20 hours after the injections; and their tumors, lungs, liver, heart, kidney, pancreas, spleen, and gonads were collected. Portions of the organs and tumors were embedded in paraffin and tested for iron using Prussian blue staining.

The test system of series [8] is breast cancer cells MDA-MB-435S. Put plainly: In vitro uptake of ligand-conjugated SPIONs (Example 10). The series is classed as cell-based, human. Conditions: MDA-MB-435S cells, no free ligand. On the procedure: as §1
For series [9], the system named is male nude mice bearing tumors from human prostate cancer line PC-3.luc. The conditions noted are these: mouse, in vivo.
Description: This experiment employed male nude mice bearing tumors from human prostate cancer line PC-3.luc (with luciferase reporter).
The test system of series [10] is female nude mice with human breast MDA-MB-435S.luc xenograft. The conditions noted are these: mouse, in vivo. Here is the method: as §2
The design of this cancer model was such that all tumor cells expressed luciferase, meaning that the presence of luciferase was inherently synonymous with the presence of cancer cells. By contrast, the presence of iron was not inherently synonymous with the presence of cancer cells. The goal of this experiment was to test the efficacy of the novel system at specifically delivering iron to cancer cells.
as §3

Series [11] concerns MCF-7, MDA-MB-435S.luc and TM4 cell lines. The series is described as follows: In vitro toxicity of constructs on three cell lines, cell line not given. The conditions noted are these: FIG. 4. It is filed as cell-based. From the text: FIG. 4 depicts toxicity measurements of different constructs on three cell lines.
Pancreatic, prostate, breast, and lung cancers may be targeted by LHRH, linked to a toxin or drug such as a lytic peptide and to a SPION. In one study we tested the use of LHRH−SPIONs conjugated to a toxin or drug for both treatment and imaging of tumors and metastases. A particle with a ligand and a toxin (drug) may be made in at least three different configurations: ligand-toxin(drug)-SPION, ligand-SPION-toxin(drug), or toxin(drug)-ligand-SPION. […] (The potential construct SPION-LHRH-Hecate was not tested in these experiments.) See FIG. 4. […] Based on the results reported above, the introduction of a spacer is expected to improve ligand-receptor interaction; and, in the case of a lytic peptide, to improve the peptide-membrane interaction. The spacer may also improve plasma stability of the particles.

Series [12] deals with MDA-MB-435S.luc xenograft-bearing mouse. The series is described as follows: Iron content of tissue homogenates, tumor and kidney (Example 9). Conditions: 250 mg/kg tail vein, 20 hours. It is filed as in vivo. On the procedure:
Portions of the tissue samples from Example 8 were homogenized, and iron content was determined in calorimetric assays. The amounts of accumulated iron per gram total organ mass could thus be determined. […] When nanoparticles alone were injected, the iron content in tumors was only about 4%.

In another series the test system is human macrophages. The series is described as follows: In vitro macrophage uptake of nanoparticles (Example 26). It is filed as cell-based. The conditions noted are these: iron concentration of 20 μg/mL.
For a further series, the system named is rats. Conditions: rat, in vivo, iv, 250 mg/kg; cited from earlier work.

“Also recorded” adds a separate entry of the source. Non-standard residues stand in square brackets, D forms with d. Residues, ends and D or L forms follow the SMILES beside them. No end group written: not given here. pGlu = O=C1CC[C@@H](C(=O)O)N1

Consider `CC(C)C[C@H](NC(=O)[C@H](C)NC(=O)[C@H](CCCCN)NC(=O)[C@H](CCCCN)NC(=O)[C@H](CC(C)C)NC(=O)[C@H](C)NC(=O)[C@H](CCCCN)NC(=O)[C@H](CCCCN)NC(=O)[C@H](CC(C)C)NC(=O)[C@H](CCCCN)NC(=O)[C@H](CCCCN)NC(=O)[C@H](CC(C)C)NC(=O)[C@H](C)NC(=O)[C@H](CCCCN)NC(=O)[C@H](CCCCN)NC(=O)[C@H](CC(C)C)NC(=O)[C@H](C)NC(=O)[C@H](CCCCN)NC(=O)[C@H](CC(C)C)NC(=O)[C@H](C)NC(=O)[C@H](CC(C)C)NC(=O)[C@H](C)NC(=O)[C@H](Cc1ccccc1)NC(=O)CNC(=O)[C@@H]1CCCN1C(=O)[C@H](CCCNC(=N)N)NC(=O)[C@H](CC(C)C)NC(=O)CNC(=O)[C@H](Cc1ccc(O)cc1)NC(=O)[C@H](CO)NC(=O)[C@H](Cc1c[nH]c2ccccc12)NC(=O)[C@H](Cc1c[nH]cn1)NC(=O)[C@@H]1CCC(=O)N1)C(=O)O` [LHRH-Hecate] ([pGlu]HWSYGLRPGFALALKALKKALKKLKKALKKAL-OH; C-terminus assumed), for which, in [1] (during and after treatment), the “change of tumor volumes (and tumor weights)” value is “arrested at the start of treatment and then diminished significantly; also recorded: decreased”. In addition, the “lymph node metastases, assayed by luciferase activity at necropsy” value in series [1] (mouse, in vivo) was “destroyed”. For the same compound, in series [1], the “tumor weights at necropsy” value worked out at 0.07 ± 0.04 g.

As for “LHRH-Glu-SPION: LHRH bound to SPION through a glutaric acid spacer (Examples 5 and 7) (QHWSYGLRPG; ends and bridges not checked; also: bound to SPION through a glutaric acid spacer, site not given here; UniProt P01148 24-33, looked up)”, in [2], the “iron accumulation in the breast cancer cells” value was 223±16 pg/cell and the “iron accumulation in the breast cancer cells in the presence of LHRH” value came out at 123±25 pg/cell.

“LHRH−SPION: Fe3O4 magnetite nanoparticles covalently bound to LHRH by carbodiimide reaction (Example 3)”: in [3], the “ligand-mediated uptake in cell lines that did not express the appropriate receptors” value was “did not bind and accumulate; also recorded: substantially lower”. Further, in [1], the “tumor weights at necropsy” value is 0.24 ± 0.09 g. Further, in [2], the “iron accumulation in the breast cancer cells” value is 165±16 pg/cell and the “iron accumulation in the breast cancer cells in the presence of LHRH” value stood at 106±26 pg/cell. In addition, in the series with tumor-free mice, the “percentage of iron accumulating in lung” value is listed as 0.9%. For the same compound, the “charge of nanoparticles (in words)” value in series [4] was “almost neutral”. The “retention of nanoparticles inside the target cells” value in [5] was “at least four weeks”. In addition, in series [6], the “predicted depletion of iron from tumor and metastatic tissues” value was “slower depletion”; the “predicted iron content in kidney, liver and spleen over time” value is on record as “decrease rather rapidly with time”. Besides, the “tumors testing positive for iron (Prussian blue staining)” value in [7] was “Four of six”. In [8], this compound showed an observed uptake of 452 pg Fe/cell. Besides, the “accumulation in tumor tissue compared to normal (kidney) tissue” value in [9] is reported as “preferentially accumulate in tumor tissue”. In series [10], the “fraction of injected particles accumulated in primary tumors and metastases” value is reported as “up to 60%”; the “relation of level accumulated in the lungs to metastatic load (luciferase activity)” value was “linear function of the metastatic load”. Moreover, in series [10] (iv, 250 mg/kg), the “percentage of iron accumulating in kidney” value came out at 3.3% and the “percentage of iron accumulating in lung” value is 22.2%. In series [11], the toxicity result is reported as “not toxic”. Also, the “iron located in the tumor (estimate of iron content in tumor and kidney)” value in series [12] is on record as “up to 70%”. In the series with human macrophages, the “difference in macrophage uptake, SPIONs versus LHRH-SPIONs” value is on record as “thirteen-fold” and the “fraction taken up by macrophages” value was “about 5%”.

In the case of iron oxide nanoparticles, the adverse effects entry with rats is “no adverse effects”.
